Measured values: paper PMC10962654 (Journal of Food and Drug Analysis, 2023)
Structures can show the parent of a compound that is named as a salt. Where two headings read alike, the source gives them in different places.

What was measured:
[1] = system: cTn I; test: Plasma cTn I; format: in vivo, Sprague Dawley rats; settings: MI/R rats, Sigmoid-Emax model
[2] = MI/R rats, plasma, n = 6
[3] = system: IMA; test: Plasma IMA; format: in vivo, Sprague Dawley rats; settings: MI/R rats, Sigmoid-Emax model
[4] = system: α-HBDH; test: Plasma α-HBDH; format: in vivo, Sprague Dawley rats; settings: MI/R rats, Sigmoid-Emax model
[5] = system: CK-MB; test: Plasma CK-MB; format: in vivo, Sprague Dawley rats; settings: MI/R rats, Sigmoid-Emax model
[6] = system: CK-MB, IMA, cTn I, and α-HBDH; test: Cardioprotection in MI/R rats judged on the four myocardial injury biomarkers; format: in vivo, Sprague Dawley rats; settings: plasma, ELISA, i.v.

Row | Compound | Emax (maximal effect) of optimal PK/PD equation, ΔcTn I ([1]; GHI-L ([…], i.v.)) | CL1 ([2]; GHI-H (GHI 10 mL/kg, i.v.)) [mL/min/kg] | CL2 ([2]; GHI-H (GHI 10 mL/kg, i.v.)) [mL/min/kg] | K10 ([2]; GHI-H (GHI 10 mL/kg, i.v.)) [h⁻¹] | K12 ([2]; GHI-H (GHI 10 mL/kg, i.v.)) [h⁻¹] | K21 ([2]; GHI-H (GHI 10 mL/kg, i.v.)) [h⁻¹] | Q ([2]; GHI-H (GHI 10 mL/kg, i.v.)) [mL/min/kg] | V1 ([2]; GHI-H (GHI 10 mL/kg, i.v.)) [L/kg] | V2 ([2]; GHI-H (GHI 10 mL/kg, i.v.)) [L/kg] | t1/2α ([2]; GHI-H (GHI 10 mL/kg, i.v.)) [min] | CL1 ([2]; GHI-L (GHI […], i.v.)) [mL/min/kg] | CL2 ([2]; GHI-L (GHI […], i.v.)) [mL/min/kg] | K10 ([2]; GHI-L (GHI […], i.v.)) [h⁻¹] | K12 ([2]; GHI-L (GHI […], i.v.)) [h⁻¹] | K21 ([2]; GHI-L (GHI […], i.v.)) [h⁻¹] | Q ([2]; GHI-L (GHI […], i.v.)) [mL/min/kg] | V1 ([2]; GHI-L (GHI […], i.v.)) [L/kg] | t1/2α ([2]; GHI-L (GHI […], i.v.)) [min] | CL1 ([2]; GHI-M (GHI 5 mL/kg, i.v.)) [mL/min/kg] | Emax (maximal effect) of optimal PK/PD equation, ΔCK-MB ([5]; GHI-L ([…], i.v.)) | also measured
1 | C[C@@H]1O[C@@H](OC[C@H]2O[C@@H](Oc3c(-c4ccc(O)c(O)c4)oc4cc(O)cc(O)c4c3=O)[C@H](O)[C@@H](O)[C@@H]2O)[C@H](O)[C@H](O)[C@H]1O [Rutin, rutin] | 4.632 | 46.88 ± 7.65 | 111.9 ± 61.47 | 25.55 ± 19.846 | 42.24 ± 19.866 | 7.333 ± 1.971 | 111.8 ± 61.52 | 0.239 ± 0.209 | 0.855 ± 0.277 | 0.72 ± 0.36 | 63.25 ± 8.27 | 104.4 ± 13.5 | 10.125 ± 0.978 | 16.754 ± 1.998 | 3.748 ± 0.381 | 104.4 ± 13.6 | 0.379 ± 0.071 | 1.44 ± 0.12 | 47.87 ± 4.4 |  | CL2 ([2]; GHI-M (GHI 5 mL/kg, i.v.)): 83.63 ± 11.1 mL/min/kg; K10 ([2]; GHI-M (GHI 5 mL/kg, i.v.)): 6.448 ± 1.858 h⁻¹; K12 ([2]; GHI-M (GHI 5 mL/kg, i.v.)): 11.318 ± 3.536 h⁻¹; K21 ([2]; GHI-M (GHI 5 mL/kg, i.v.)): 4.751 ± 1.024 h⁻¹; Q ([2]; GHI-M (GHI 5 mL/kg, i.v.)): 83.63 ± 11.1 mL/min/kg; V1 ([2]; GHI-M (GHI 5 mL/kg, i.v.)): 0.466 ± 0.88 L/kg; V2 ([2]; GHI-M (GHI 5 mL/kg, i.v.)): 1.075 ± 0.133 L/kg; t1/2α ([2]; GHI-M (GHI 5 mL/kg, i.v.)): 2.1 ± 0.6 min
2 | O=C(O)/C=C/c1ccc(O)cc1 [p-Coumaric acid, p-coumaric acid] | 2.907 | 57.82 ± 3.12 | 111 ± 36.42 | 4.878 ± 0.808 | 9.545 ± 4.156 | 10.071 ± 3.659 | 110.9 ± 36.38 | 0.723 ± 0.095 | 0.669 ± 0.07 | 2.04 ± 0.6 | 55.28 ± 6.15 | 98.48 ± 21.73 | 8.039 ± 2.934 | 14.117 ± 4.736 | 4.662 ± 1.024 | 98.48 ± 21.67 | 0.462 ± 0.17 | 1.8 ± 0.54 | 46.8 ± 2.23 | 6.058 | Emax (maximal effect) of optimal PK/PD equation, ΔcTn I ([1]; GHI-H (10 mL/kg, i.v.)): 9.007; Emax (maximal effect) of optimal PK/PD equation, ΔcTn I ([1]; GHI-M (5 mL/kg, i.v.)): 7.258; Emax (maximal effect) of optimal PK/PD equation, ΔIMA ([3]; GHI-H (10 mL/kg, i.v.)): 62.712; Emax (maximal effect) of optimal PK/PD equation, ΔIMA ([3]; GHI-L ([…], i.v.)): 19.558; Emax (maximal effect) of optimal PK/PD equation, ΔIMA ([3]; GHI-M (5 mL/kg, i.v.)): 49.851; Emax (maximal effect) of optimal PK/PD equation, Δα-HBDH ([4]; GHI-H (10 mL/kg, i.v.)): 89.907; Emax (maximal effect) of optimal PK/PD equation, Δα-HBDH ([4]; GHI-L ([…], i.v.)): 37.993; Emax (maximal effect) of optimal PK/PD equation, Δα-HBDH ([4]; GHI-M (5 mL/kg, i.v.)): 71.86; Emax (maximal effect) of optimal PK/PD equation, ΔCK-MB ([5]; GHI-H (10 mL/kg, i.v.)): 15.798; Emax (maximal effect) of optimal PK/PD equation, ΔCK-MB ([5]; GHI-M (5 mL/kg, i.v.)): 15.943; V2 ([2]; GHI-L (GHI […], i.v.)): 1.272 ± 0.124 L/kg; CL2 ([2]; GHI-M (GHI 5 mL/kg, i.v.)): 115.3 ± 41 mL/min/kg; K10 ([2]; GHI-M (GHI 5 mL/kg, i.v.)): 4.277 ± 0.897 h⁻¹; K12 ([2]; GHI-M (GHI 5 mL/kg, i.v.)): 11.023 ± 5.384 h⁻¹; K21 ([2]; GHI-M (GHI 5 mL/kg, i.v.)): 10.302 ± 3.876 h⁻¹; Q ([2]; GHI-M (GHI 5 mL/kg, i.v.)): 115.3 ± 41.02 mL/min/kg; V1 ([2]; GHI-M (GHI 5 mL/kg, i.v.)): 0.677 ± 0.122 L/kg; V2 ([2]; GHI-M (GHI 5 mL/kg, i.v.)): 0.7 ± 0.142 L/kg; t1/2α ([2]; GHI-M (GHI 5 mL/kg, i.v.)): 2.22 ± 1.5 min
3 | COc1ccc(CCN(C)CCCC(C#N)(c2ccc(OC)c(OC)c2)C(C)C)cc1OC (stereo not shown) [verapamil hydrochloride, Verapamil hydrochloride] |  |  |  |  |  |  |  |  |  |  |  |  |  |  |  |  |  |  |  |  | elevated level of the four biomarkers induced by MI/R [6]: declined to different degrees
4 | hydroxysafflor yellow A | 4.628 |  |  |  |  |  |  |  |  |  |  |  |  |  |  |  |  |  |  | 11.082 | Emax (maximal effect) of optimal PK/PD equation, ΔcTn I ([1]; GHI-M (5 mL/kg, i.v.)): 7.341; Emax (maximal effect) of optimal PK/PD equation, ΔIMA ([3]; GHI-L ([…], i.v.)): 31.473; Emax (maximal effect) of optimal PK/PD equation, ΔIMA ([3]; GHI-M (5 mL/kg, i.v.)): 49.851; Emax (maximal effect) of optimal PK/PD equation, Δα-HBDH ([4]; GHI-L ([…], i.v.)): 49.45; Emax (maximal effect) of optimal PK/PD equation, Δα-HBDH ([4]; GHI-M (5 mL/kg, i.v.)): 88.223; Emax (maximal effect) of optimal PK/PD equation, ΔCK-MB ([5]; GHI-M (5 mL/kg, i.v.)): 27.2
5 | kaempferol-3-O-rutinoside |  |  |  |  |  |  |  |  |  |  |  |  |  |  |  |  |  |  |  | 11.04 | 
